Reference: the supplement of paper PMC10627819

Columns and labels:
S. pneumoniae D39V [1] = test: fitness (endpoint OD595 vs no drug) (fraction); higher = more growth
How it was run: (§1)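 Each well of a 384-well plate received 30 µl of culture at OD595 0.01, or 55 µl for S. pneumoniae. TSB, LB Lennox or CY served as media at 37 °C. OD595 was taken every 30 min for 14 h and corrected by subtracting the first reading. Fitness is the optical density at stationary-phase entry divided by the robust mean of no-drug controls, capped at 1.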

S. aureus Newman [2] = test: as above
How it was run: as §1

B. subtilis 168 = test: Bliss interaction score (quartile over a dose matrix) (fitness difference); higher = more antagonism (negative = synergy)
How it was run: (§2)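 Fitness is OD595 at stationary-phase entry relative to the plate's robust no-drug mean, capped at 1. Single-drug fitness was inferred from combinations. The Bliss score is observed minus product-expected fitness, summarised by quartiles over technical, biological and donor/recipient replicates.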

S. pneumoniae D39V [3] = test: as above
How it was run: as §2

S. aureus DSM 20231 = test: as above
How it was run: as §2

S. aureus Newman [4] = test: as above
How it was run: as §2
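Throughout, for Bliss interaction score (quartile over a dose matrix): first quartile when negative (synergy) and third quartile when positive (antagonism).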

CC1(C)S[C@@H]2[C@H](NC(=O)[C@H](N)c3ccc(O)cc3)C(=O)N2[C@H]1C(=O)O [Amoxicillin] + CC1=C(C(=O)O)N2C(=O)[C@@H](NC(=O)[C@H](N)c3ccccc3)[C@H]2SC1 [Cephalexin]
one replicate
Conditions	fitness
S. aureus Newman [2], first compound 0.0625 µg/mL, partner 2 µg/mL	0.864
S. aureus Newman [2], first compound 0.125 µg/mL, partner 2 µg/mL	0.832
S. aureus Newman [2], first compound 0.25 µg/mL, partner 2 µg/mL	0.705
S. pneumoniae D39V [1], first compound 0.0008 µg/mL, partner 0.125 µg/mL	0.978
S. pneumoniae D39V [1], first compound 0.0008 µg/mL, partner 0.25 µg/mL	0.9
S. pneumoniae D39V [1], first compound 0.0008 µg/mL, partner 0.5 µg/mL	0.881
S. pneumoniae D39V [1], first compound 0.0008 µg/mL, partner 1 µg/mL	0.91
S. pneumoniae D39V [1], first compound 0.0008 µg/mL, partner 2 µg/mL	0.494
S. pneumoniae D39V [1], first compound 0.0008 µg/mL, partner 4 µg/mL	0.02
S. pneumoniae D39V [1], first compound 0.0015 µg/mL, partner 0.125 µg/mL	0.922
S. pneumoniae D39V [1], first compound 0.0015 µg/mL, partner 0.25 µg/mL	0.891
S. pneumoniae D39V [1], first compound 0.0015 µg/mL, partner 0.5 µg/mL	0.906
S. pneumoniae D39V [1], first compound 0.003 µg/mL, partner 0.125 µg/mL	0.857
S. pneumoniae D39V [1], first compound 0.003 µg/mL, partner 0.25 µg/mL	0.835
S. pneumoniae D39V [1], first compound 0.003 µg/mL, partner 0.5 µg/mL	0.849
S. pneumoniae D39V [1], first compound 0.006 µg/mL, partner 1 µg/mL	0.0722
S. pneumoniae D39V [1], first compound 0.006 µg/mL, partner 2 µg/mL	0.0153
S. pneumoniae D39V [1], first compound 0.006 µg/mL, partner 4 µg/mL	0.0513

fitness
Conditions	partner 0.25 µg/mL	partner 0.5 µg/mL	partner 1 µg/mL	partner 2 µg/mL	partner 4 µg/mL
S. aureus Newman [2], first compound 0.0625 µg/mL	0.877	0.882	0.942	–	–
S. aureus Newman [2], first compound 0.125 µg/mL	0.928	0.921	0.894	–	–
S. aureus Newman [2], first compound 0.25 µg/mL	0.877	0.928	0.888	–	–
S. pneumoniae D39V [1], first compound 0.0015 µg/mL	–	–	0.791	0.337	0.0775
S. pneumoniae D39V [1], first compound 0.003 µg/mL	–	–	0.544	0.125	0.0383

Conditions	Bliss interaction score
B. subtilis 168	0.0616
S. aureus DSM 20231	0.0743
S. aureus Newman [4]	0.0592
S. pneumoniae D39V [3]	-0.0619

CO/N=C(\C(=O)N[C@@H]1C(=O)N2C(C(=O)[O-])=C(C[N+]3(C)CCCC3)CS[C@H]12)c1csc(N)n1 [Cefepime] + CC(C1CCC(C(O1)OC2C(CC(C(C2O)OC3C(C(C(CO3)(C)O)NC)O)N)N)N)NC [Gentamicin]
main component drawn
Conditions	fitness
S. aureus Newman [2], first compound 0.125 µg/mL, partner 0.375 µg/mL	0.954
S. aureus Newman [2], first compound 0.125 µg/mL, partner 0.5 µg/mL	0.871
S. aureus Newman [2], first compound 0.125 µg/mL, partner 0.75 µg/mL	0.94
S. aureus Newman [2], first compound 0.125 µg/mL, partner 1 µg/mL	≥ 1
S. aureus Newman [2], first compound 0.125 µg/mL, partner 1.5 µg/mL	0.916
S. aureus Newman [2], first compound 0.125 µg/mL, partner 2 µg/mL	≥ 1
S. aureus Newman [2], first compound 0.25 µg/mL, partner 0.375 µg/mL	0.857
S. aureus Newman [2], first compound 0.25 µg/mL, partner 0.5 µg/mL	0.816
S. aureus Newman [2], first compound 0.25 µg/mL, partner 0.75 µg/mL	0.837
S. aureus Newman [2], first compound 0.25 µg/mL, partner 1 µg/mL	0.906
S. aureus Newman [2], first compound 0.25 µg/mL, partner 1.5 µg/mL	0.787
S. aureus Newman [2], first compound 0.25 µg/mL, partner 2 µg/mL	0.966
S. aureus Newman [2], first compound 0.5 µg/mL, partner 0.375 µg/mL	0.799
S. aureus Newman [2], first compound 0.5 µg/mL, partner 0.5 µg/mL	0.757
S. aureus Newman [2], first compound 0.5 µg/mL, partner 0.75 µg/mL	0.818
S. aureus Newman [2], first compound 0.5 µg/mL, partner 1 µg/mL	0.804
S. aureus Newman [2], first compound 0.5 µg/mL, partner 1.5 µg/mL	0.744
S. aureus Newman [2], first compound 0.5 µg/mL, partner 2 µg/mL	0.87
S. pneumoniae D39V [1], first compound 0.007 µg/mL, partner 2 µg/mL	0.994
S. pneumoniae D39V [1], first compound 0.007 µg/mL, partner 4 µg/mL	0.996
S. pneumoniae D39V [1], first compound 0.007 µg/mL, partner 8 µg/mL	0.97
S. pneumoniae D39V [1], first compound 0.0078 µg/mL, partner 2 µg/mL	1
S. pneumoniae D39V [1], first compound 0.0078 µg/mL, partner 4 µg/mL	≥ 1
S. pneumoniae D39V [1], first compound 0.0078 µg/mL, partner 8 µg/mL	0.972
S. pneumoniae D39V [1], first compound 0.014 µg/mL, partner 2 µg/mL	≥ 1
S. pneumoniae D39V [1], first compound 0.014 µg/mL, partner 4 µg/mL	0.99
S. pneumoniae D39V [1], first compound 0.014 µg/mL, partner 8 µg/mL	≥ 1
S. pneumoniae D39V [1], first compound 0.0155 µg/mL, partner 2 µg/mL	0.964
S. pneumoniae D39V [1], first compound 0.0155 µg/mL, partner 4 µg/mL	0.974
S. pneumoniae D39V [1], first compound 0.0155 µg/mL, partner 8 µg/mL	0.971
S. pneumoniae D39V [1], first compound 0.028 µg/mL, partner 2 µg/mL	0.926
S. pneumoniae D39V [1], first compound 0.028 µg/mL, partner 4 µg/mL	0.932
S. pneumoniae D39V [1], first compound 0.028 µg/mL, partner 8 µg/mL	0.885
S. pneumoniae D39V [1], first compound 0.031 µg/mL, partner 2 µg/mL	0.493
S. pneumoniae D39V [1], first compound 0.031 µg/mL, partner 8 µg/mL	0.439

main component drawn
Conditions	Bliss interaction score
B. subtilis 168	-0.134
S. aureus DSM 20231	0.0966
S. aureus Newman [4]	-0.0492
S. pneumoniae D39V [3]	0.0531

CC1(C)S[C@@H]2[C@H](NC(=O)[C@H](N)c3ccc(O)cc3)C(=O)N2[C@H]1C(=O)O [Amoxicillin] + C/C(=C\C(=O)OCCCCCCCCC(=O)O)C[C@@H]1OC[C@H](C[C@@H]2O[C@H]2[C@@H](C)[C@H](C)O)[C@@H](O)[C@H]1O [Pseudomonic acid]
fitness, S. pneumoniae D39V [1]
Conditions	first compound 0.0008 µg/mL	first compound 0.0015 µg/mL	first compound 0.003 µg/mL
partner 0.03 µg/mL	0.888	0.974	0.932
partner 0.06 µg/mL	0.838	0.822	0.882
partner 0.12 µg/mL	0.586	0.68	–

fitness, one replicate
Conditions	partner 0.03 µg/mL	partner 0.0313 µg/mL	partner 0.06 µg/mL	partner 0.0625 µg/mL	partner 0.12 µg/mL	partner 0.125 µg/mL
S. aureus Newman [2], first compound 0.0625 µg/mL	–	0.0402	–	0.0188	–	0.0414
S. aureus Newman [2], first compound 0.125 µg/mL	–	0.0188	–	0.0167	–	0.0327
S. aureus Newman [2], first compound 0.25 µg/mL	–	0.0112	–	0.0059	–	0.0163
S. pneumoniae D39V [1], first compound 0.006 µg/mL	0.577	–	0.64	–	0.283	–

Conditions	Bliss interaction score
B. subtilis 168	0.0663
S. aureus DSM 20231	0.0169
S. aureus Newman [4]	-0.031
S. pneumoniae D39V [3]	0.121

CCCCCCCCCC(=O)N[C@@H](Cc1c[nH]c2ccccc12)C(=O)N[C@H](CC(N)=O)C(=O)N[C@@H](CC(=O)O)C(=O)N[C@@H]1C(=O)NCC(=O)N[C@@H](CCCN)C(=O)N[C@@H](CC(=O)O)C(=O)N[C@H](C)C(=O)N[C@@H](CC(=O)O)C(=O)NCC(=O)N[C@H](CO)C(=O)N[C@@H]([C@H](C)CC(=O)O)C(=O)N[C@@H](CC(=O)c2ccccc2N)C(=O)O[C@@H]1C [Daptomycin] + C/C(=C\C(=O)OCCCCCCCCC(=O)O)C[C@@H]1OC[C@H](C[C@@H]2O[C@H]2[C@@H](C)[C@H](C)O)[C@@H](O)[C@H]1O [Pseudomonic acid]
fitness, S. pneumoniae D39V [1]
Conditions	first compound 1 µg/mL	first compound 2 µg/mL	first compound 4 µg/mL
partner 0.03 µg/mL	0.895	0.904	0.893
partner 0.06 µg/mL	0.679	0.765	0.736
partner 0.12 µg/mL	0.324	0.407	0.408

fitness, S. aureus Newman [2], one replicate
Conditions	first compound 0.125 µg/mL	first compound 0.25 µg/mL	first compound 0.5 µg/mL
partner 0.0313 µg/mL	0.0598	0.0545	0.0362
partner 0.0625 µg/mL	0.0219	0.0175	0.0123
partner 0.125 µg/mL	0.0444	0.0303	0.0061

Conditions	Bliss interaction score
B. subtilis 168	0.058
S. aureus DSM 20231	-0.0135
S. aureus Newman [4]	-0.0312
S. pneumoniae D39V [3]	-0.101
